The values below come from patent publication US20260000496A1, “MATERIALS AND METHODS FOR DRUG-INDUCED GINGIVAL OVERGROWTH” (Optimed Technology, Inc., priority 2019, published 2026).

The subject of series [1] is LITAF. Put plainly: Mice study #2: LITAF immunostaining of gingival tissue. The class given is in vivo, C57BL/6 mice. As to the method:
Mice study #2: Validation study for preventive and active treatment for DIGO. […] One set of these mice were used as a control disease group (FIG. 23A) while the other group was treated with folic acid (gel and in drinking water) (FIG. 23B). In the prevention and treatment group, folic acid (10 μg/ml) (Sigma-Aldrich, St. Louis MO) was included in the drinking water from the time of suture placement until end of the study (14 days). Additionally, gel applications were repeated daily until the end of the study (14 days). The four groups in this study were: • 1. Control group (n=2): no interventions were performed • 2.
Histopathology and Immunohistochemistry. Mice mandibles were fixed in 10% formaldehyde for overnight at 4° C. on the shaker with 45 rpm and then the solutions were replaced with 70% ethanol. The tissues were decalcified with 10% ethylenediaminetetraacetic acid (EDTA) for 1 week and were dehydrated through graded ethanol, cleared with xylene, and embedded in paraffin. 4 μm serial sections were cut in a buccal-lingual direction and stained with Hematoxylin and Eosin (HE) and observed under light microscopy for histomorphological evaluations.
For immunohistochemistry, unstained sections were deparaffinized in xylene for 10 minutes and then transferred to ethanol for 20 minutes. […]

The test system of series [2] is TNF-α. Kind of series: TNF-α ELISA of mice gingival tissue lysates. The class given is in vivo. The conditions noted are these: n=5, p<0.05. As to the method:
Enzyme linked immunosorbent assay (ELISA). ELISA was conducted with a mouse TNF-α ELISA Kit (PeproTech, USA) and TGF-β Emax ImmunoAssay System (Promega USA) to detect the TNF-α and TGF-β respectively. After normalization of the total cells or tissue protein lysates, 20 μg protein of each sample was used for the detection of TNF-α or TGF-β. ELISA was performed according to the manufacturers' instructions. For TNF-α, 100 ng/100 μl of capture antibody was added to each well of 96 well assay plate and incubated for overnight at room temperature. Blocking buffer of 200 μl per well were added to each well and incubated for 1 hour at room temperature. 20 μg of each protein sample as well as TNF-α standard (from 2 ng/ml to 0 ng/ml) were added and incubated the plates for 2 hours. 50 ng/100 μl of detection antibody was added in each well and incubated for 2 hours. Avidin-HRP conjugated antibody with a dilution of 1:2000 was added for 30 minutes. 100 μl per well of ABTS solution was added to each well and incubated until color change. Optical absorbing values were read at 405 and 450 nm and corrected by 650 nm. […] TMB One Solution was added for 15 minutes and the reaction were stopped using 100 μl of 1N hydrochloric acid and the absorbance at 450 nm were recorded on a plate reader. Data were analyzed using excel software. […]
Mice gingival tissue lysates were assessed for TNF-α levels using an ELISA (n=5).

The nature of series [3]: Folic acid release from PLG(A) microspheres in methylcellulose gel. The class given is physicochemical. As to the method: Folic acid was encapsulated in polylactic-colycolide (PLG) microspheres that were visualized using scanning electron microscopy (SEM) (A). These microspheres were embedded within a methylcellulose gel to enable oral applications and visualized using SEM (B). Controlled release of folic acid of a protracted time course was examined using spectroscopy and cumulative release was calculated (C).
In order to deliver the Folic acid treatment, a controlled release system with polylactic glycolic acid (PLGA) and methylcellulose gel were used (FIG. 36). Release kinetics of folic acid increased over time and noted to continue until day 21. The amount of the released Folic acid was approximate 400 μg/ml on day 1 and reached 800 μg/ml on day 21 due to bulk deterioration of polymer.
Microsphere Fabrication. The folic acid was encapsulated in poly (lactide-co-glycolide) (PLG) (8515DLG7E, Lakeshore Biomaterials, Birmingham, AL, USA) microspheres using double emulsion solvent evaporation method. Briefly, a 100 μL quantity of proteins dissolved in molecular-grade water was pipetted into 1 mL of 5% PLG in ethyl acetate (Sigma-Aldrich Corp., St. Louis, MO, USA) and sonicated (Sonics and Materials Inc., Newtown, CT, USA) on 50% magnitude for 1 min. A second emulsion composed of 1% […] (PVA) (Sigma-Aldrich) and 7% ethyl acetate was then added and vortexed for 15 sec. The solution was then added to a 1% PVA solution with continuous stirring for 3 hrs at room temperature and filtered through a 0.2-μm filter (Nalgene, ThermoFisher Scientific, Rockville, MD, USA), collected by centrifugation at 2,000 rpm for 10 min (Eppendorf, Hamburg, Germany), freeze-dried for 16 hrs (Labconco, Kansas City, MO, USA), and stored at −20° C. The microspheres fabricated with this technique were between 2 and 200 microns.
Gel preparation and folic acid release study. Folic acid (100 μg/ml) (Sigma-Aldrich, St Louis, MO) was encapsulated in PLG microspheres as described above. The resulting lyophilized powder was formulated into an oral gel containing 20 mg of folic acid microspheres mixed with 5% of methylcellulose (Sigma-Aldrich, St Louis, MO) in 330 μl of phosphate buffer saline. The gels were prepared fresh daily before applications and repeated until end of the study period (14 days).

As to `Nc1nc2ncc(CNc3ccc(C(=O)N[C@@H](CCC(=O)O)C(=O)O)cc3)nc2c(=O)[nH]1` [folic acid], the “epithelial LITAF expression, disease group relative to folic acid-treated group” value in series [1] is “higher in the disease group and uniformly distributed compared to the control and treated groups”. The “TNF-α levels in mice gingival tissue lysates” value in series [2] is reported as “reduced the expression of TNF-α”. Besides, the “release of folic acid from polymeric microspheres” value in series [3] (FIG. 20) is on record as “sustained release”. In series [3] (controlled release system with PLGA and methylcellulose gel), the “release of folic acid noted to continue until” value amounted to 21 days. The “amount of the released Folic acid” value was around 400 µg/mL in series [3] (controlled release system with PLGA and methylcellulose gel, day 1); 800 µg/mL in series [3] (controlled release system with PLGA and methylcellulose gel, day 21).
